Experimental data taken from the supplement of paper PMC11451515.

Tests used:
SEM cells [1] = experiment: AUC of viability dose-response curve (% viability x log10 dose units); higher = less sensitive; conditions: 48 h
Procedure, shortened: (§1)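 Leukemia cells adapted to each medium were seeded in 1536-well plates (500 or 1000 cells/well) and given library compounds in DMSO for 48 h at 37°C. The 11 threefold doses spanned 47 μM to 0.79 nM, and CellTiter-Glo One luminescence was normalised per plate to DMSO and cell-free wells before four-parameter log-logistic fitting on log10 dose. Area under the curve was integrated with the trapezoidal rule, scaling curves above full viability and removing curves that failed quality control.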

P12-Ichikawa [2] = experiment: as above; conditions: 48 h
Procedure, shortened: as §1

NOMO1 [3] = experiment: as above; conditions: 48 h
Procedure, shortened: as §1

SEM cells [4] = experiment: cell viability relative to DMSO control; higher = less cytotoxic; conditions: 48 h
Procedure, shortened: (§2)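 Viability is expressed as a percentage of DMSO wells within each plate, and cell-free wells serve as background. Seeding densities in the 1536-well plates (5 μl) were 500 cells/well for NOMO1 or SEM leukemia cells and 1000 cells/well for P12-Ichikawa. Each line was adapted for at least four passages in each medium. Library compounds in DMSO were pin-dosed at 47 μM to 0.79 nM (11 points, threefold), and CellTiter-Glo One luminescence was read after 48 h at 37°C.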

P12-Ichikawa [5] = experiment: as above; conditions: 48 h
Procedure, shortened: as §2

NOMO1 [6] = experiment: as above; conditions: RPMI 5 mM glucose + 10% FBS, 48 h
Procedure, shortened: as §2

C[C@@H](Oc1cc(-n2cnc3ccc(CN4CCN(C)CC4)cc32)sc1C(N)=O)c1ccccc1C(F)(F)F
AUC of viability dose-response curve
Conditions	NOMO1 [3]	P12-Ichikawa [2]	SEM cells [1]
HPLM + 10% dialyzed FBS	280	208	233
RPMI 5 mM glucose + 10% FBS	246	202	214
RPMI 5 mM glucose + 10% dialyzed FBS	255	214	234

COc1ccc(Cn2ccc3ccc(C(=O)NO)cc32)cc1
Conditions	AUC of viability dose-response curve	cell viability [%]
NOMO1 [3], HPLM + 10% dialyzed FBS	446	–
NOMO1 [3], RPMI 5 mM glucose + 10% FBS	461	–
NOMO1 [3], RPMI 5 mM glucose + 10% dialyzed FBS	469	–
NOMO1 [6], 0.000781 µM	–	107
NOMO1 [6], 0.00234 µM	–	121
NOMO1 [6], 0.00702 µM	–	115
NOMO1 [6], 0.0211 µM	–	128
NOMO1 [6], 0.0632 µM	–	124
NOMO1 [6], 0.19 µM	–	123
NOMO1 [6], 0.569 µM	–	130
NOMO1 [6], 1.71 µM	–	137
NOMO1 [6], 5.12 µM	–	124
NOMO1 [6], 15.4 µM	–	130
NOMO1 [6], 46.1 µM	–	128
SEM cells [1], HPLM + 10% dialyzed FBS	464	–
SEM cells [1], RPMI 5 mM glucose + 10% FBS	460	–
SEM cells [1], RPMI 5 mM glucose + 10% dialyzed FBS	462	–

cell viability [%]
Conditions	HPLM + 10% dialyzed FBS	RPMI 5 mM glucose + 10% FBS	RPMI 5 mM glucose + 10% dialyzed FBS
P12-Ichikawa [5], 0.000781 µM	116	108	116
P12-Ichikawa [5], 0.00234 µM	121	114	116
P12-Ichikawa [5], 0.00702 µM	119	120	116
P12-Ichikawa [5], 0.0211 µM	87.4	65.3	79.9
P12-Ichikawa [5], 0.0632 µM	128	134	126
P12-Ichikawa [5], 0.19 µM	123	125	126
P12-Ichikawa [5], 0.569 µM	120	130	129
P12-Ichikawa [5], 1.71 µM	119	120	119
P12-Ichikawa [5], 5.12 µM	113	120	114
P12-Ichikawa [5], 15.4 µM	90.3	83.5	87
P12-Ichikawa [5], 46.1 µM	44	52.3	55.6
SEM cells [4], 0.000781 µM	102	103	99.6
SEM cells [4], 0.00234 µM	107	115	110
SEM cells [4], 0.00702 µM	120	122	115
SEM cells [4], 0.0211 µM	120	98.1	76.3
SEM cells [4], 0.0632 µM	123	109	114
SEM cells [4], 0.19 µM	113	129	118
SEM cells [4], 0.569 µM	127	127	112
SEM cells [4], 1.71 µM	118	127	110
SEM cells [4], 5.12 µM	112	109	112
SEM cells [4], 15.4 µM	114	109	111
SEM cells [4], 46.1 µM	58.5	49.3	38.5
